{"source": "patent US7186534B1", "about": "(The Trustees of Columbia University in the City of New York, priority 1997, dated 2007)", "key": {"[1]": {"target": "T1, human 9-cis retinol dehydrogenase (9cRDH) (Homo sapiens, UniProt Q92781)", "T1 sequence (Q92781 1-318)": "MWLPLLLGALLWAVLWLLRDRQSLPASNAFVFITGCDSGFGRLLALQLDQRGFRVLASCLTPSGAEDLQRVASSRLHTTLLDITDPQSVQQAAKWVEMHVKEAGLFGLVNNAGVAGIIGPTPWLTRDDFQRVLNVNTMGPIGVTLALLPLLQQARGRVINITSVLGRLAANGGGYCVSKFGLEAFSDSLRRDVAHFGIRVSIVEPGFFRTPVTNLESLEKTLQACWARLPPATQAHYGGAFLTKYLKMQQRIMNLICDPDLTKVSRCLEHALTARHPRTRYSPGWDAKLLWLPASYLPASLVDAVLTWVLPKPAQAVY", "assay": "Inhibition of recombinant human 9cRDH activity (9-cis-retinol oxidation, CHO cell homogenate, HPLC)", "type": "biochemical", "settings": "for inhibition of human 9cRDH activity (in words) / IC50: 10 μM 9-cis-retinol; for IC50: 15 min, 37° C., CHO cell homogenate, read-out: Estimated inhibitor concentration resulting in 50% inhibition of human 9-cis retinol dehydrogenase activity (ID50)"}, "mouse 9cRDH": {"target": "T2, mouse 9cRDH (Mus musculus, UniProt O55240)", "T2 sequence (O55240 1-318)": "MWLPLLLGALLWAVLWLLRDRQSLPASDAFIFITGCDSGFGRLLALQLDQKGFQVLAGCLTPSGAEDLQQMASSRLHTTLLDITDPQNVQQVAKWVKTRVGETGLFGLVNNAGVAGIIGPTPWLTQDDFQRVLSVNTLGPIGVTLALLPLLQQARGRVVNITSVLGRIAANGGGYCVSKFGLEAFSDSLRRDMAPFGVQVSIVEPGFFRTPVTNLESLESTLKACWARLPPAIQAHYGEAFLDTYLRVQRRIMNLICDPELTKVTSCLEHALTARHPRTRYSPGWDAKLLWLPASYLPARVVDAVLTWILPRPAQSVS", "assay": "Inhibition of recombinant mouse 9cRDH activity (9-cis-retinol oxidation, CHO cell homogenate, HPLC)", "type": "biochemical", "settings": "for inhibition of mouse 9cRDH activity (in words): 10 μM 9-cis-retinol"}, "[2]": {"settings": "10 μM steroid, equimolar to substrate, forward (retinol oxidation) or reverse (retinaldehyde reduction) direction"}, "[3]": {"settings": "phenylarsine oxide 15 μM, carbenoxolone 0.5 mM, all others 1 mM"}, "[4]": {"settings": "NaCl up to 1 M, β-mercaptoethanol, dithiothreitol 1 mM, Triton X-100, sodium cholate 1% (w/v)"}, "[5]": {"settings": "[…] 15 μM, carbenoxolone 0.5 mM, all others 1 mM"}}, "note": "“Also recorded” adds a separate entry of the source. Where two headings read alike, the source gives them in different places."}
{"compound": "C[C@]12CCC(=O)C=C1CC[C@@H]1[C@@H]2CC[C@]2(C)C(=O)CC[C@@H]12", "note": "[4-androstene-3,17dione]", "values": [{"measurement": "inhibition of human 9cRDH activity by hydroxysteroids", "setting": "[1]; [2]", "result": "none of these hydroxysteroids inhibited"}, {"measurement": "inhibition of mouse 9cRDH activity by hydroxysteroids", "setting": "mouse 9cRDH; [2]", "result": "none of these hydroxysteroids inhibited"}]}
{"compound": "Cc1cn[nH]c1", "note": "[4-methylpyrazole]", "values": [{"measurement": "influence of SCAD/alcohol dehydrogenase inhibiting reagents on recombinant human 9cRDH activity", "setting": "[1]; [3]", "result": "none of these compounds influenced"}, {"measurement": "influence of SCAD/alcohol dehydrogenase inhibiting reagents on recombinant mouse 9cRDH activity", "setting": "mouse 9cRDH; [3]", "result": "none of these compounds influenced"}]}
{"compound": "C[C@]12CCC(=O)C[C@@H]1CC[C@@H]1[C@@H]2CC[C@]2(C)C(=O)CC[C@@H]12", "note": "[5α-androstane-3,17dione]", "values": [{"measurement": "inhibition of human 9cRDH activity by hydroxysteroids", "setting": "[1]", "result": "none of these hydroxysteroids inhibited"}, {"measurement": "inhibition of mouse 9cRDH activity by hydroxysteroids", "setting": "mouse 9cRDH", "result": "none of these hydroxysteroids inhibited"}]}
{"compound": "C[C@]12CC[C@H](O)C[C@@H]1CC[C@@H]1[C@@H]2CC[C@]2(C)[C@@H](O)CC[C@@H]12", "note": "[5α-androstane-3β, 17βdiol]", "values": [{"measurement": "inhibition of human 9cRDH activity by hydroxysteroids", "setting": "[1]; [2]", "result": "none of these hydroxysteroids inhibited"}, {"measurement": "inhibition of mouse 9cRDH activity by hydroxysteroids", "setting": "mouse 9cRDH; [2]", "result": "none of these hydroxysteroids inhibited"}]}
{"compound": "O=C(O)CN(CCN(CC(=O)O)CC(=O)O)CC(=O)O", "note": "[EDTA]", "values": [{"measurement": "effect on 9cRDH activity expressed in CHO cells (first series)", "setting": "[1]; [4]", "result": "not inhibited"}]}
{"compound": "CCCCCCCC/C=C\\CCCCCCCC(=O)O", "note": "[Oleic Acid, oleic acid]", "values": [{"measurement": "times (fold) less potent than 13-cis retinoic acid as inhibitor of 9cRDH", "setting": "[1]", "result": "approximately 100"}, {"measurement": "inhibition of human 9cRDH activity (in words)", "setting": "[1]", "result": "mild inhibitor; also recorded: only very weak inhibitors; also recorded: weakly inhibited"}, {"measurement": "IC50", "setting": "[1]", "result": 15, "unit": "µM"}, {"measurement": "inhibition of mouse 9cRDH activity (in words)", "setting": "mouse 9cRDH", "result": "only very weak inhibitors"}]}
{"compound": "CCCCCCCC/C=C\\CCCCCCCCO", "note": "[Oleyl Alcohol, oleyl alcohol]", "values": [{"measurement": "inhibition of human 9cRDH activity (in words)", "setting": "[1]", "result": "did not inhibit; also recorded: only very weak inhibitors; also recorded: not an inhibitor"}, {"measurement": "IC50", "setting": "[1]", "result": "> 100", "unit": "µM"}, {"measurement": "inhibition of mouse 9cRDH activity (in words)", "setting": "mouse 9cRDH", "result": "only very weak inhibitors"}]}
{"compound": "CCCCCCCCCCCCCCCC(=O)O", "note": "[Palmitic Acid, palmitic acid]", "values": [{"measurement": "IC50", "setting": "[1]", "result": "> 100", "unit": "µM"}, {"measurement": "inhibition of human 9cRDH activity (in words)", "setting": "[1]; listed as Palmitic acid", "result": "not an inhibitor"}, {"measurement": "inhibition of human 9cRDH activity (in words)", "setting": "[1]; listed as palmitic acid", "result": "not inhibitory; also recorded: only very weak inhibitors"}, {"measurement": "inhibition of mouse 9cRDH activity (in words)", "setting": "mouse 9cRDH", "result": "only very weak inhibitors"}]}
{"compound": "CCCCCCCCCCC/C=C\\CCCCCO", "note": "[Petroselinyl Alcohol, petroselinyl alcohol]", "values": [{"measurement": "inhibition of human 9cRDH activity (in words)", "setting": "[1]", "result": "did not inhibit; also recorded: not an inhibitor"}, {"measurement": "IC50", "setting": "[1]", "result": "> 100", "unit": "µM"}, {"measurement": "inhibition of human 9cRDH activity (in words)", "setting": "[1]; listed as petrosenlinyl alcohol", "result": "only very weak inhibitors"}, {"measurement": "inhibition of mouse 9cRDH activity (in words)", "setting": "mouse 9cRDH", "result": "only very weak inhibitors"}]}
{"compound": "CC1(C)[C@@H](OC(=O)CCC(=O)O)CC[C@]2(C)[C@H]3C(=O)C=C4[C@@H]5C[C@@](C)(C(=O)O)CC[C@]5(C)CC[C@@]4(C)[C@]3(C)CC[C@@H]12", "note": "[carbenoxolone]", "values": [{"measurement": "influence of SCAD/alcohol dehydrogenase inhibiting reagents on recombinant human 9cRDH activity", "setting": "[1]; [3]", "result": "none of these compounds influenced"}, {"measurement": "influence of SCAD/alcohol dehydrogenase inhibiting reagents on recombinant mouse 9cRDH activity", "setting": "mouse 9cRDH; [3]", "result": "none of these compounds influenced"}]}
{"compound": "CC(C)=CCCC(C)=CC=O", "note": "[citral]", "values": [{"measurement": "influence of SCAD/alcohol dehydrogenase inhibiting reagents on recombinant human 9cRDH activity", "setting": "[1]; [5]", "result": "none of these compounds influenced"}, {"measurement": "influence of SCAD/alcohol dehydrogenase inhibiting reagents on recombinant mouse 9cRDH activity", "setting": "mouse 9cRDH; [5]", "result": "none of these compounds influenced"}]}
{"compound": "C[C@]12C[C@H](O)[C@H]3[C@@H](CCC4=CC(=O)CC[C@@]43C)[C@@H]1CC[C@@H]2C(=O)CO", "note": "[corticosterone]", "values": [{"measurement": "inhibition of human 9cRDH activity by hydroxysteroids", "setting": "[1]; [2]", "result": "none of these hydroxysteroids inhibited"}, {"measurement": "inhibition of mouse 9cRDH activity by hydroxysteroids", "setting": "mouse 9cRDH; [2]", "result": "none of these hydroxysteroids inhibited"}]}
{"compound": "C[C@]12CCC(=O)C=C1CC[C@@H]1[C@@H]2C(=O)C[C@@]2(C)[C@H]1CC[C@]2(O)C(=O)CO", "note": "[cortisone]", "values": [{"measurement": "inhibition of human 9cRDH activity by hydroxysteroids", "setting": "[1]; [2]", "result": "none of these hydroxysteroids inhibited"}, {"measurement": "inhibition of mouse 9cRDH activity by hydroxysteroids", "setting": "mouse 9cRDH; [2]", "result": "none of these hydroxysteroids inhibited"}]}
{"compound": "CCN(CC)C(=S)SSC(=S)N(CC)CC", "note": "[disulfuran]", "values": [{"measurement": "influence of SCAD/alcohol dehydrogenase inhibiting reagents on recombinant human 9cRDH activity", "setting": "[1]; [5]", "result": "none of these compounds influenced"}, {"measurement": "influence of SCAD/alcohol dehydrogenase inhibiting reagents on recombinant mouse 9cRDH activity", "setting": "mouse 9cRDH; [5]", "result": "none of these compounds influenced"}]}
{"compound": "CCO", "note": "[ethanol]", "values": [{"measurement": "inhibition of human 9cRDH activity (in words)", "setting": "[1]", "result": "not inhibited"}, {"measurement": "effect on 9cRDH activity expressed in CHO cells (first series)", "setting": "[1]; [4]", "result": "not inhibited"}, {"measurement": "inhibition of mouse 9cRDH activity (in words)", "setting": "mouse 9cRDH", "result": "not inhibited"}]}
{"compound": "C[C@]12CCC(=O)C=C1CC[C@@H]1[C@@H]2[C@@H](O)C[C@@]2(C)[C@H]1CC[C@]2(O)C(=O)CO", "note": "[hydrocortisone]", "values": [{"measurement": "inhibition of human 9cRDH activity by hydroxysteroids", "setting": "[1]; [2]", "result": "none of these hydroxysteroids inhibited"}, {"measurement": "inhibition of mouse 9cRDH activity by hydroxysteroids", "setting": "mouse 9cRDH; [2]", "result": "none of these hydroxysteroids inhibited"}]}
{"compound": "c1cnc2c(c1)ccc1cccnc12", "note": "[o-phenanthroline, 1,10-phenanthroline]", "values": [{"measurement": "effect on 9cRDH activity expressed in CHO cells (first series)", "setting": "[1]; [4]", "result": "not inhibited"}, {"measurement": "influence of SCAD/alcohol dehydrogenase inhibiting reagents on recombinant human 9cRDH activity", "setting": "[1]; [3]", "result": "none of these compounds influenced"}, {"measurement": "influence of SCAD/alcohol dehydrogenase inhibiting reagents on recombinant mouse 9cRDH activity", "setting": "mouse 9cRDH; [3]", "result": "none of these compounds influenced"}]}
{"compound": "C[C@]12C=CC(=O)C=C1CC[C@@H]1[C@@H]2C(=O)C[C@@]2(C)[C@H]1CC[C@]2(O)C(=O)CO", "note": "[prednisone]", "values": [{"measurement": "inhibition of human 9cRDH activity by hydroxysteroids", "setting": "[1]; [2]", "result": "none of these hydroxysteroids inhibited"}, {"measurement": "inhibition of mouse 9cRDH activity by hydroxysteroids", "setting": "mouse 9cRDH; [2]", "result": "none of these hydroxysteroids inhibited"}]}
{"compound": "CC(=O)[C@H]1CC[C@H]2[C@@H]3CCC4=CC(=O)CC[C@]4(C)[C@H]3CC[C@]12C", "note": "[progesterone]", "values": [{"measurement": "inhibition of human 9cRDH activity by hydroxysteroids", "setting": "[1]; [2]", "result": "none of these hydroxysteroids inhibited"}, {"measurement": "inhibition of mouse 9cRDH activity by hydroxysteroids", "setting": "mouse 9cRDH; [2]", "result": "none of these hydroxysteroids inhibited"}]}
{"compound": "C[C@H](CCC(=O)[O-])[C@H]1CC[C@H]2[C@@H]3[C@H](O)C[C@@H]4C[C@H](O)CC[C@]4(C)[C@H]3C[C@H](O)[C@]12C.[Na+]", "note": "[sodium cholate]", "values": [{"measurement": "effect on 9cRDH activity expressed in CHO cells (first series)", "setting": "[1]", "result": "rapidly inactivated"}]}
{"compound": "CC(=O)[O-].CC(=O)[O-].[Zn+2]", "note": "[zinc acetate]", "values": [{"measurement": "influence of SCAD/alcohol dehydrogenase inhibiting reagents on recombinant human 9cRDH activity", "setting": "[1]", "result": "none of these compounds influenced"}, {"measurement": "influence of SCAD/alcohol dehydrogenase inhibiting reagents on recombinant mouse 9cRDH activity", "setting": "mouse 9cRDH", "result": "none of these compounds influenced"}]}
{"compound": "C[C@]12CC[C@@H]3c4ccc(O)cc4CC[C@H]3[C@@H]1CC[C@@H]2O", "note": "[β-estradiol]", "values": [{"measurement": "inhibition of human 9cRDH activity by hydroxysteroids", "setting": "[1]; [2]", "result": "none of these hydroxysteroids inhibited"}, {"measurement": "inhibition of mouse 9cRDH activity by hydroxysteroids", "setting": "mouse 9cRDH; [2]", "result": "none of these hydroxysteroids inhibited"}]}
{"compound": "Triton X-100", "values": [{"measurement": "effect on 9cRDH activity expressed in CHO cells (first series)", "setting": "[1]", "result": "rapidly inactivated"}]}
